Experimental data reported in PubChem BioAssay (NCI).
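Test compounds were applied to cells in 96-well plates for 48 hours at 5 doses. Here, GI50 denotes the concentration required for 50% inhibition of growth. TGI: total growth inhibition.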

Tests used:
Assay in all cases: inhibition of tumour cell growth, NCI panel, 48 h
[1] = system: A498 renal
[2] = system: CCRF-CEM leukemia
[3] = system: COLO 205 colon
[4] = system: K-562 leukemia
[5] = system: M14 melanoma
[6] = system: NCI-H23 lung
[7] = system: OVCAR-3 ovarian
[8] = system: OVCAR-5 ovarian
[9] = system: SNB-75 CNS
[10] = system: BT-549 breast

SMILES	TGI [1] [µM]	TGI [2] [µM]	TGI [3] [µM]	TGI [4] [µM]	TGI [5] [µM]	TGI [6] [µM]	TGI [7] [µM]	TGI [8] [µM]	TGI [9] [µM]	GI50 [10] [µM]	TGI [10] [µM]	GI50 [2] [µM]	GI50 [3] [µM]	GI50 [4] [µM]	GI50 [6] [µM]	GI50 [7] [µM]	GI50 [8] [µM]	GI50 [9] [µM]	GI50 [1] [µM]	GI50 [5] [µM]
CC1(c2cccc3ccccc23)OC(=O)c2ccccc21 (stereo unspecified)	68.3	52.3	29.8	65.8	37.2	38.1	58.1	> 100	46	–	–	–	–	–	–	–	–	–	–	–
CCOc1ccc(-c2nonc2NC(=O)c2cccc(C)c2)cc1OCC	–	> 100	> 100	> 100	–	> 100	> 100	> 100	52.3	> 100	> 100	> 100	> 100	> 100	35.8	> 100	> 100	14.5	–	–
O=C(CO)CC(=O)C(=O)Nc1ccccc1	–	> 100	> 100	> 100	> 100	> 100	> 100	> 100	–	–	–	–	–	–	–	–	–	–	–	–
N#C/C(=C/c1ccc[nH]1)P(=O)(O)O	–	> 100	> 100	> 100	> 100	> 100	> 100	> 100	> 100	–	–	–	–	–	–	–	–	–	–	–
Clc1cc(Cc2cc(Cl)c(Cl)c3c2OCOC3)c2c(c1Cl)COCO2	80.4	> 100	> 100	> 100	> 100	> 100	69	> 100	52.3	–	–	–	–	–	–	–	–	–	–	–
COc1cc2c3c(n(CCCN)c(=O)c2cc1OC)-c1cc2c(cc1/C3=C\CCN)OCO2	97.2	36.5	33.5	> 40.4	35.7	24.1	> 23.5	> 26.1	8.02	–	–	0.196	4.34	2.17	5.35	–	4.29	1.85	35.9	12.3
N#CC(C(=O)CCC(=O)C(C#N)c1ccccc1)c1ccccc1 (stereo unspecified)	> 100	> 100	> 100	> 100	> 100	> 100	> 100	> 100	> 100	–	–	–	–	–	–	–	–	–	–	–
CCOc1ccccc1NC(=O)CC1SC(=Nc2ccc([N+](=O)[O-])cc2)NC1=O (stereo unspecified)	–	54.3	35.1	–	50.9	35.2	31.6	78.7	74.2	–	–	–	–	–	–	–	–	–	–	–
COC(=O)/C([Se]c1c(C)cc(C)cc1C)=C(\[Se]c1c(C)cc(C)cc1C)C(=O)OC	> 100	> 100	> 100	> 100	> 100	> 100	> 100	> 100	> 100	–	–	–	–	–	–	–	–	–	–	–
O=C1NC(=O)C2C(=O)NC(=O)C1C2(c1ccccc1)c1cc[nH]c1 (stereo unspecified)	> 100	> 100	> 100	> 100	> 100	> 100	> 100	> 100	> 100	–	–	–	–	–	–	–	–	–	–	–
N#CC(C(=O)/C(=N/N)C(C#N)c1ccccc1)c1ccccc1 (stereo unspecified)	–	> 100	–	> 100	> 100	> 100	> 100	> 100	–	–	–	–	–	–	–	–	–	–	–	–
O=C1/C(=C/c2ccccc2)CN(C(=O)c2cccnc2)C/C1=C\c1ccccc1	5.42	6.05	3.67	> 100	5.17	5.19	1.71	5.13	26.7	–	–	0.558	1.55	0.347	1.83	0.505	2	5.48	2.19	1.93
N/C(=C\c1ccc(OCc2ccccc2)c(OCc2ccccc2)c1[N+](=O)[O-])C(=O)O	> 100	> 100	> 100	> 100	> 100	> 100	> 100	> 100	> 100	–	–	–	–	–	–	–	–	–	–	–
Oc1cc(O)c2c(-c3c(O)c(-c4ccc(O)c(O)c4)[o+]c4cc(O)cc(O)c34)c(O)c(-c3ccc(O)c(O)c3)[o+]c2c1	> 100	–	> 100	–	> 100	> 100	46.2	> 100	61.8	–	–	–	–	–	–	–	–	–	–	–
Cc1cc2nc(CCC(=O)O)c(=O)[nH]c2cc1C	> 100	> 100	> 100	> 100	> 100	> 100	> 100	> 100	> 100	–	–	–	–	–	–	–	–	–	–	–
CC(=O)[CH-]C(=O)c1ccccc1.CC(=O)[CH-]C(=O)c1ccccc1.[Eu+3].[OH-].[OH3+]	> 100	> 100	> 100	> 100	> 100	> 100	–	–	> 100	–	–	> 100	> 100	> 100	> 100	–	–	96.1	> 100	> 100
CCC1(c2c(F)c(F)c(N)c(F)c2F)CCC(=O)NC1=O (stereo unspecified)	> 100	> 100	> 100	> 100	> 100	> 100	> 100	> 100	> 100	–	–	–	–	–	–	–	–	–	–	–
O=C1CCCCCCCC/C=C\CC(c2ccco2)O1 (stereo unspecified)	–	> 100	> 100	73.8	70.5	> 100	> 100	> 100	61.8	28.6	> 100	36	31.6	23.5	35.8	32.2	22.5	21.2	–	24.6
O=[N+]([O-])c1nccn1CC(O)CN1CC1 (stereo unspecified)	> 100	> 100	> 100	> 100	> 100	> 100	> 100	> 100	> 100	–	–	–	–	–	–	–	–	–	–	–
CN(C)c1ccc([O][Bi]([Cl])[Cl])cc1	–	–	> 100	–	> 100	> 100	> 100	> 100	> 100	–	–	–	> 100	–	> 100	> 100	> 100	> 100	–	87
